The subject of test [1] is KB 3-1. In words: Cytotoxicity against human epidermoid carcinoma KB-3-1 cells. It counts as functional, cell-based.
Test [2] concerns K562. Description: Increase in the level of drug efflux in Dox-resistant K562 cells in presence of cyclosporine over its absence. Type of test: functional, cell-based. The settings on record: Homo sapiens.
For test [3], the system named is Mus musculus. Description: Survival in mice with Dox-resistant K562 xenografts after 50 days at 5-10 mg/kg, ip. It counts as functional.
For test [4], the system named is K562. Description: Increase in cytotoxicity against Dox-resistant K562 cells in presence of Cyclosporine over its absence. Type of test: functional, cell-based. The following applies: Homo sapiens.
Test [5] concerns K562. In words: Drug resistance index, ratio of IC50 in Dox-resistant K562 cells over Dox-sensitive cells. It counts as functional, Homo sapiens.
Test [6] relates to KB 3-1. In words: Cytotoxicity against drug resistant KB-V cells. The settings on record: Homo sapiens. It counts as functional, cell-based.
Test [7] relates to K562. In words: Increase in the level of drug uptake in Dox-resistant K562 cells in presence of cyclosporine over its absence. Type of test: functional, cell-based. The settings on record: Homo sapiens.
The subject of test [8] is K562. Description: Cytotoxicity against Dox-resistant K562 cells by MTS. It counts as functional, cell-based. The following applies: Homo sapiens.
The subject of test [9] is K562. Description: Cytotoxicity against Dox-resistant K562 cells by MTS at 1 uM and in absence of cyclosporine. It counts as functional, Homo sapiens.
The subject of test [10] is K562. In words: Cytotoxicity against Dox-resistant K562 cells by MTS at 1 uM and in presence of cyclosporine. It counts as functional, Homo sapiens.
Test [11] has as its system Mus musculus. Description: Mortality in mice with Dox-resistant K562 xenografts in 20 days at 5-10 mg/kg, ip. It counts as functional.

pIC50: −log10 of the molar value. Calls of active or inactive are those of the source. The calls are words filed in the database; no cut-off is given here.

A word on the pIC50: it is the IC50 on a negative log10 scale, so that one unit is a factor of ten. Read a low pIC50 as a large IC50.

For the compound `COc1cccc2c1C(=O)c1c(O)c3c(c(O)c1C2=O)C[C@@](O)(C(C)=O)C[C@@H]3O[C@H]1C[C@H](N=[N+]=[N-])[C@H](O)[C@H](C)O1`, the pIC50 in the test on KB 3-1 [1] and in the test with KB 3-1 [6] was 6.52 throughout. For the same compound, the outcome in the test with K562 [2], with K562 [4] and with K562 [7] was inactive. The compound further displayed an Activity in the test with Mus musculus [3] of 100%. Besides, the “Ratio IC50” value in the test with K562 [5] came out at 13.

`COc1cccc2c1C(=O)c1c(O)c3c(c(O)c1C2=O)C[C@@](O)(C(C)=O)C[C@@H]3O[C@H]1C[C@H](n2cc(CCO)nn2)[C@H](O)[C@H](C)O1`: the result with K562 [2] and in the test on K562 [7] was inactive.

For the compound `COc1cccc2c1C(=O)c1c(O)c3c(c(O)c1C2=O)C[C@@](O)(C(C)=O)C[C@@H]3O[C@H]1C[C@H](n2cc(CO)nn2)[C@H](O)[C@H](C)O1`, the outcome in the test on K562 [2] and in the test on K562 [7] was inactive.

Compound `COc1cccc2c1C(=O)c1c(O)c3c(c(O)c1C2=O)C[C@@](O)(C(C)=O)C[C@@H]3O[C@H]1C[C@H](N)[C@H](O)[C@H](C)O1` [DAUNORUBICIN] gave a pIC50 with K562 [8] of less than 5.30. Further, the outcome in the test on K562 [2] and with K562 [7] was Active. In addition, the results for the Activity with K562 [9], with K562 [10] and in the test with Mus musculus [11] were 30%, 70% and 50%, respectively. For the same compound, the “Ratio IC50” value in the test with K562 [5] was determined as 333.

In the case of `COc1cccc2c1C(=O)c1c(O)c3c(c(O)c1C2=O)C[C@@](O)(C(C)=O)C[C@@H]3O[C@H]1C[C@H](n2cc(CCCO)nn2)[C@H](O)[C@H](C)O1`, the outcome with K562 [2] and in the test on K562 [7] was inactive.

On to `COc1cccc2c1C(=O)c1c(O)c3c(c(O)c1C2=O)C[C@@](O)(C(C)=O)C[C@@H]3O[C@H]1C[C@H](n2cc(CCCCO)nn2)[C@H](O)[C@H](C)O1`, for which the outcome in the test with K562 [2] and in the test with K562 [7] was inactive.

The record behind these values is ChEMBL document CHEMBL1149383, “Discovery of a daunorubicin analogue that exhibits potent antitumor activity and overcomes P-gp-mediated drug resistance” (J Med Chem, 2006).
